Test results taken from patent US20230286975A1, “IMPROVED METHOD FOR THE PRODUCTION OF LYSERGIC ACID DIETHYLAMIDE (LSD) AND NOVEL DERIVATIVES THEREOF” (COMPASS […], priority 2020, published 2023).

Experiments:
[1] = biological target: T1, Human recombinant serotonin 5-HT2A receptors (Homo sapiens, UniProt P28223); experiment: 5-HT2A receptor radioligand binding inhibition ([3H]Ketanserin); conditions: for inhibition at 10 µM: screened at 10 μM, mean of two replicates; for interaction at 5-HT2A receptor, in words: 10 μM, % inhibition greater than 50% interpreted as potentially significant interaction; for selectivity as ligand of the 5-HT2A receptor, in words: conclusion from % inhibition at 10 μM over ten receptors
T1 construct: expressed in transfected cells; host or cells: CHO-K1
T1 sequence (P28223 whole entry): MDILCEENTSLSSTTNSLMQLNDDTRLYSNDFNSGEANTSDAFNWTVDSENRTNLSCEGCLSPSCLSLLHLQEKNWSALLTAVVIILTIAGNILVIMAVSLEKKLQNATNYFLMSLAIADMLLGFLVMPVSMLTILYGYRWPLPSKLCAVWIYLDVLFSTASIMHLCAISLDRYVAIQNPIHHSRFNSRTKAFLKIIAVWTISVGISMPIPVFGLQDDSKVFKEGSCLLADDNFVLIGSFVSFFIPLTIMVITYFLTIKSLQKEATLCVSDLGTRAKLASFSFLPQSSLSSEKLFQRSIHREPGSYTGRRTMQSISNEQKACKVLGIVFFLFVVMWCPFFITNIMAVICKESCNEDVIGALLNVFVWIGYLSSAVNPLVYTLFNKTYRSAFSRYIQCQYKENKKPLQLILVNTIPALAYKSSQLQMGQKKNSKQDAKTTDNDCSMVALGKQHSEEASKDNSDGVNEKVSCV
Description: (§1) Four novel LSD derivatives according to the present invention (referred to as “Compound 1”, “Compound 2”, “Compound 3”, and “Compound 4”; structures depicted below) were screened at 10 μM at key receptors of interest in order to determine % binding inhibition. Targets were selected due to prior evidence that LSD binds these targets with moderate or high affinities in vitro, as well as their functional significance in the context of human health.
Human recombinant serotonin 5-HT2A receptors expressed in CHO-K1 cells were used in modified Tris-HCl buffer pH 7.4. A 30 μg aliquot of membrane protein was incubated with 0.5 nM [^3H]Ketanserin for 60 minutes at 25° C. Non-specific binding was estimated in the presence of 1 μM Mianserin. Receptors were filtered and washed, the filters were then counted to determine [^3H]Ketanserin specifically bound. Test compounds were screened at 10 μM.
(§2) Experimental results were expressed as a percent of control specific binding, via the equation: […]
(§3) For each target, data from two experimental replicates were averaged to generate a mean % inhibition.

[2] = biological target: T2, Human recombinant serotonin 5-HT2B receptor (Homo sapiens, UniProt P41595); experiment: 5-HT2B receptor radioligand binding inhibition ([3H]LSD); conditions: for inhibition at 10 µM: screened at 10 μM, mean of two replicates
T2 construct: expressed in transfected cells; host or cells: CHO-K1
T2 sequence (P41595 whole entry): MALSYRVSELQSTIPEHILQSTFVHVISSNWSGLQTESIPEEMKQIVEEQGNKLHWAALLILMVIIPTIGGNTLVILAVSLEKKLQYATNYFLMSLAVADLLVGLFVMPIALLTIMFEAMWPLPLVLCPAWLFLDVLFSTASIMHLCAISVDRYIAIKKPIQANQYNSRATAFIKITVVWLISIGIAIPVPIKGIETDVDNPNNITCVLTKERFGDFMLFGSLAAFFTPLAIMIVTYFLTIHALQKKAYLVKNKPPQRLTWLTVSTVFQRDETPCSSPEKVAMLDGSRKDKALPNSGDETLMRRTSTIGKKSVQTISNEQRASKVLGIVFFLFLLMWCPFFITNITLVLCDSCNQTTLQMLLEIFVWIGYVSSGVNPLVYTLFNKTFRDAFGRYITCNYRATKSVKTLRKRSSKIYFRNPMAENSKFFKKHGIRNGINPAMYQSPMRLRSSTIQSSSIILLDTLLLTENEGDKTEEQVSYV
Description: as §1
Human recombinant serotonin 5-HT2B receptor expressed in CHO-K1 cells were used to prepare membranes in modified Tris-HCl buffer pH 7.4. A 30 μg aliquot of membrane protein was incubated with 1.2 nM [^3H]LSD for 60 minutes at 37° C. Non-specific binding was estimated in the presence of 10 μM serotonin. Membranes were filtered and washed, the filters were then counted to determine [^3H]LSD specifically bound. Test compounds were screened at 10 μM.
as §2, §3

[3] = biological target: T3, human recombinant serotonin 5-HT2c receptors (Homo sapiens, UniProt P28335); experiment: 5-HT2C receptor radioligand binding inhibition ([3H]Mesulergine); conditions: for inhibition at 10 µM: screened at 10 μM, mean of two replicates; for interaction at 5-HT2C receptor, in words: 10 μM, % inhibition greater than 50% interpreted as potentially significant interaction
T3 construct: expressed in transfected cells; host or cells: CHO-K1 (stably transfected)
T3 sequence (P28335 33-458): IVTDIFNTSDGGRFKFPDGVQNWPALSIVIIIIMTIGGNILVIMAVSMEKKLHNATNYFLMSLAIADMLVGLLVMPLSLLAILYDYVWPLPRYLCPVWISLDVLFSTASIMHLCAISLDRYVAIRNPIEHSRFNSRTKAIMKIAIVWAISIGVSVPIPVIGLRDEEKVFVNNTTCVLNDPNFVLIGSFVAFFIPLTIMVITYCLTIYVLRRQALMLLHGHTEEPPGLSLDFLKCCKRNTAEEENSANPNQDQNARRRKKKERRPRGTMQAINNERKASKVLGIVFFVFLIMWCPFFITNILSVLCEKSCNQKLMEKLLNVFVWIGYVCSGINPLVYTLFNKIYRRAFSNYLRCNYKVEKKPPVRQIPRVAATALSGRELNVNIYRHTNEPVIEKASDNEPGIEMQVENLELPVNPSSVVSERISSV
Description: as §1
CHO-K1 cells stably transfected with a plasmid encoding the human recombinant serotonin 5-HT2c receptors were used to prepare membranes in modified Tris-HCl buffer pH 7.4. A 3.2 μg aliquot of membrane protein was incubated with 1.0 nM [^3H]Mesulergine for 60 minutes at 25° C. Non-specific binding was estimated in the presence of 1 μM Mianserin. Membranes were filtered and washed, the filters were then counted to determine [^3H]Mesulergine specifically bound. Test compounds were screened at 10 μM.
as §2, §3

[4] = biological target: T4, Human recombinant serotonin 5-HT1A receptors (Homo sapiens, UniProt P08908); experiment: 5-HT1A receptor radioligand binding inhibition ([3H]8-OH-DPAT); conditions: for inhibition at 10 µM: screened at 10 μM, mean of two replicates; for interaction at 5-HT1A receptor, in words: 10 μM, % inhibition greater than 50% interpreted as potentially significant interaction
T4 construct: expressed in transfected cells; host or cells: CHO-K1
T4 sequence (P08908 1-422): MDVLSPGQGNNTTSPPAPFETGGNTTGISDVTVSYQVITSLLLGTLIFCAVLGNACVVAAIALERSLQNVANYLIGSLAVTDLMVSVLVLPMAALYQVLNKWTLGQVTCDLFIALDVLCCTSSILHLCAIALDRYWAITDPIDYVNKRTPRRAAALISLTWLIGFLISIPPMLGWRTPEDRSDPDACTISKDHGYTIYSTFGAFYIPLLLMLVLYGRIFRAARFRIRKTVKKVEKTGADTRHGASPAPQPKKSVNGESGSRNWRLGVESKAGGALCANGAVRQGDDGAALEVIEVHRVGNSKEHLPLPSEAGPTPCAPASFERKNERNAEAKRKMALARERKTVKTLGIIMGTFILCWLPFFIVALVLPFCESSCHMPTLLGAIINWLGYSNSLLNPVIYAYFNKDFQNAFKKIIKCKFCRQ
Description: as §1
Human recombinant serotonin 5-HT1A receptors expressed in CHO-K1 cells were used in modified Tris-HCl buffer pH 7.4. An 8 μg aliquot of membrane protein was incubated with 1.5 nM [^3H]8-OH-DPAT for 60 minutes at 25° C. Non-specific binding was estimated in the presence of 10 μM metergoline. Receptors were filtered and washed, the filters were then counted to determine [^3H]8-OH-DPAT specifically bound. Test compounds were screened at 10 μM.
as §2, §3

[5] = biological target: T5, Human recombinant dopamine D2S receptors (Homo sapiens, UniProt P14416); experiment: D2S receptor radioligand binding inhibition ([3H]Spiperone); conditions: for inhibition at 10 µM: screened at 10 μM, mean of two replicates
T5 construct: expressed in transfected cells; host or cells: CHO
T5 sequence (P14416 1-414 isoform P14416-2): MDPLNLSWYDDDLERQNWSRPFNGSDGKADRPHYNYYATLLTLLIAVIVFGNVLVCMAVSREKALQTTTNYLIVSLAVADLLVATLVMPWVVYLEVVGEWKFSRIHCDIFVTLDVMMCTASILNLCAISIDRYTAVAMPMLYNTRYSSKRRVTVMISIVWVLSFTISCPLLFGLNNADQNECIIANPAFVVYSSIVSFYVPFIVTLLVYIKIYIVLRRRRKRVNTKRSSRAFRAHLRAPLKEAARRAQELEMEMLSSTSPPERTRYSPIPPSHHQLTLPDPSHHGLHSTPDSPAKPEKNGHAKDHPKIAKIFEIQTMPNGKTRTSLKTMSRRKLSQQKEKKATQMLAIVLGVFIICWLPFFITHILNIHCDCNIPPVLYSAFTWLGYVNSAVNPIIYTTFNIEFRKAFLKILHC
Description: as §1
(§4) Human recombinant dopamine D2S receptors expressed in CHO cells were used in modified Tris-HCl buffer pH 7.4. A 15 μg aliquot was incubated with 0.16 nM [^3H]Spiperone for 120 minutes at 25° C. Non-specific binding was estimated in the presence of 10 μM haloperidol. Receptors were filtered and washed, the filters were then counted to determine [^3H]Spiperone specifically bound. Test compounds were screened at 10 μM.
as §2, §3

[6] = biological target: T6, Human recombinant dopamine D2L receptor (Homo sapiens, UniProt P14416); experiment: D2L receptor radioligand binding inhibition ([3H]Spiperone); conditions: for inhibition at 10 µM: screened at 10 μM, mean of two replicates
T6 construct: expressed in transfected cells; host or cells: CHO
T6 sequence (P14416 whole entry): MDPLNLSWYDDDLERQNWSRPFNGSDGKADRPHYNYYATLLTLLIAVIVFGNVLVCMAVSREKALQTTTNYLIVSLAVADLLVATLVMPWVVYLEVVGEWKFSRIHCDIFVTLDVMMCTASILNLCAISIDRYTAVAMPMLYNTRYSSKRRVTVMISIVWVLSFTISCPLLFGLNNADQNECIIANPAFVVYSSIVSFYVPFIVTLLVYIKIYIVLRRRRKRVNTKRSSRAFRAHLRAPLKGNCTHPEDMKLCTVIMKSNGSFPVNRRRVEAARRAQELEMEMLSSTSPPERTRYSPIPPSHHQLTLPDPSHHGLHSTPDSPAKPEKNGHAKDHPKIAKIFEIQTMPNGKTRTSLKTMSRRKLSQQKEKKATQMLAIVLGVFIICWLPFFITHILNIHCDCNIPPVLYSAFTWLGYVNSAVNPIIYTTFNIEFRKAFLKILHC
Description: as §1
as §4, with “D2L receptor” for “D2S receptors”, “20” for “15”, “Receptor proteins” for “Receptors”
as §2, §3

[7] = biological target: T7, Human recombinant dopamine D1 receptors (Homo sapiens, UniProt P21728); experiment: D1 receptor radioligand binding inhibition ([3H]SCH-23390); conditions: for inhibition at 10 µM: screened at 10 μM, mean of two replicates
T7 construct: expressed in transfected cells; host or cells: CHO
T7 sequence (P21728 whole entry): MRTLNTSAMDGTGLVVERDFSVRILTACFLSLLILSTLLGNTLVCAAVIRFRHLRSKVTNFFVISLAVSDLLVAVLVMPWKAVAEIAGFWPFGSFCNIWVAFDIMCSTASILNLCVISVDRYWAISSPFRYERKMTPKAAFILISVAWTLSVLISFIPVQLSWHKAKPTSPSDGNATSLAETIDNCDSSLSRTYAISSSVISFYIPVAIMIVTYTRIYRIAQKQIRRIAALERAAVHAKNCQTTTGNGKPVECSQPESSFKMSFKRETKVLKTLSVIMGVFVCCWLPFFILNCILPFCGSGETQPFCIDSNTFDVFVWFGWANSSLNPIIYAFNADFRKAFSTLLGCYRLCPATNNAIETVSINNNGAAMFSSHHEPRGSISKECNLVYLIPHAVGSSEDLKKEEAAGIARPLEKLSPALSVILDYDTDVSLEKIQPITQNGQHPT
Description: as §1
as §4, with “D1” for “D2S”, “20” for “15”, “1.4” for “0.16”, “[^3H]SCH-23390” for “[^3H]Spiperone”, “37°” for “25°”, “(+)-butaclamol.” for “haloperidol.”
as §2, §3

[8] = biological target: T8, Human recombinant dopamine D3 receptors (Homo sapiens, UniProt P35462); experiment: D3 receptor radioligand binding inhibition ([3H]Spiperone); conditions: for inhibition at 10 µM: screened at 10 μM, mean of two replicates
T8 construct: expressed in transfected cells; host or cells: CHO
T8 sequence (P35462 whole entry): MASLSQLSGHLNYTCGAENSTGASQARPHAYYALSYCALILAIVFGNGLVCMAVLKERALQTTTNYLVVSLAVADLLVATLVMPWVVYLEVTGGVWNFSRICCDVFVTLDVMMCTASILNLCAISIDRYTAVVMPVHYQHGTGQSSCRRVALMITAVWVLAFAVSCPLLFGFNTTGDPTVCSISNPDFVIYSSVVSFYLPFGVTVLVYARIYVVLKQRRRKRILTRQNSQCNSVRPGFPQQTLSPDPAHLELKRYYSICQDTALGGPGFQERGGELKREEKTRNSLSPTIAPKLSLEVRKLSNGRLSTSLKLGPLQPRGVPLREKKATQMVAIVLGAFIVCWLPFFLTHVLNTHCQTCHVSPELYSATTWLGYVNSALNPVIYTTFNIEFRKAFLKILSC
Description: as §1
as §4, with “dopamine D3” for “dopamine D2S”, “A 10” for “A 15”, “with 0.7” for “with 0.16”, “at 37°” for “at 25°”, “of 25” for “of 10”, “μM S(−)-sulpiride.” for “μM haloperidol.”
as §2, §3

[9] = biological target: T9, Human recombinant adenosine A2A receptors (Homo sapiens, UniProt P29274); experiment: A2A receptor radioligand binding inhibition ([3H]CGS-21680); conditions: for inhibition at 10 µM: screened at 10 μM, mean of two replicates; for interaction at A2A receptor, in words: 10 μM, % inhibition greater than 50% interpreted as potentially significant interaction
T9 construct: expressed in transfected cells; host or cells: HEK-293
T9 sequence (P29274 whole entry): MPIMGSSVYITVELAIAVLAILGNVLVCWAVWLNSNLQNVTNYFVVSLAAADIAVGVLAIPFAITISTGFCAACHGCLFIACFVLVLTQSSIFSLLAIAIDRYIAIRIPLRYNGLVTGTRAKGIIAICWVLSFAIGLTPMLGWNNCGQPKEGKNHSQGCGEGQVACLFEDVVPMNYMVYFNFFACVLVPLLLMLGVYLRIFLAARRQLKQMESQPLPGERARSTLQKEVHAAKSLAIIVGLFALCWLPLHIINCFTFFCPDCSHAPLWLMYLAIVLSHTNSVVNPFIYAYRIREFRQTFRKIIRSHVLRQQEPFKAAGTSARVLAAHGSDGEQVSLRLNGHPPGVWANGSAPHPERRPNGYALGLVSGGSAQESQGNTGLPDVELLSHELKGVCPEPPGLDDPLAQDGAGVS
Description: as §1
Human recombinant adenosine A2A receptors expressed in human HEK-293 cells were used in modified Tris-HCl buffer pH 7.4. A 15 μg aliquot was incubated with 50 nM [^3H]CGS-21680 for 90 minutes at 25° C. Non-specific binding was estimated in the presence of 50 μM NECA. Receptor were filtered and washed, the filters were then counted to determine [^3H]CGS-21680 specifically bound. Test compounds were screened at 10 μM.
as §2, §3

[10] = test system: human dopamine D4.7 receptor; experiment: D4.7 receptor radioligand binding inhibition ([3H]Spiperone); conditions: for interaction at D4.7 receptor, in words: 10 μM, % inhibition greater than 50% interpreted as potentially significant interaction; for % inhibition, D4.7: screened at 10 μM, mean of two replicates
Description: as §1
CHO-K1 cells stably transfected with a plasmid encoding the human dopamine D4.7 receptor were used to prepare membranes in modified Tris-HCl buffer pH 7.4. A 60 μg aliquot of membrane was incubated with 1.5 nM [^3H]Spiperone for 120 minutes at 25° C. Non-specific binding was estimated in the presence of 10 μM haloperidol. Membranes were filtered and washed, the filters were then counted to determine [^3H]Spiperone specifically bound. Test compounds were screened at 10 μM.
as §2, §3

[11] = 10 μM, % inhibition greater than 50% interpreted as potentially significant interaction

Structure (SMILES) | inhibition at 10 µM [1] | inhibition at 10 µM [2] | inhibition at 10 µM [3] | inhibition at 10 µM [4] | inhibition at 10 µM [5] | inhibition at 10 µM [6] | inhibition at 10 µM [7] | inhibition at 10 µM [8] | inhibition at 10 µM [9] | interaction at 5-HT2A receptor, in words [1] | selectivity as ligand of the 5-HT2A receptor, in words [1] | interaction at 5-HT2C receptor, in words [3] | interaction at 5-HT1A receptor, in words [4] | interaction at D4.7 receptor, in words [10] | % inhibition, D4.7 [10] | interaction at A2A receptor, in words [9] | further results
CN1CC(C(=O)N2CC3(COC3)C2)C=C2c3cccc4[nH]cc(c34)CC21 (centres unmarked) [Compound 1, 2-oxa-6-azaspiro[3.3]heptyl-lysergic acid amide] | 95.3% | 96.8% | 85.8% | 96.3% | 83.1% | 78.8% | 85.6% | 94.5% | -12.3% | – | – | – | – | – | – | – | –
CCN(CC)C(=O)C1C=C2c3cccc4[nH]cc(c34)CC2N(CCF)C1 (centres unmarked) [Compound 2, 6-(2-mono-fluoro-ethyl)-6-nor-lysergic acid diethylamide] | 95.7% | 90.5% | 4.8% | 100% | 0.6% | 7.9% | 4.3% | 14.2% | -2.5% | very high % inhibition | advantageously selective ligands of the 5-HT2A receptor | no significant interaction | very high % inhibition | no significant interaction | 2.8% | no significant interaction | interaction at D2S receptor, in words [5, 11]: no significant interaction; interaction at D2L receptor, in words [6, 11]: no significant interaction; interaction at D1 receptor, in words [7, 11]: no significant interaction; interaction at D3 receptor, in words [8, 11]: no significant interaction
CN1CC(C(=O)NCC(F)(F)F)C=C2c3cccc4[nH]cc(c34)CC21 (centres unmarked) [Compound 3, lysergic acid mono-(trifluoroethyl)amide] | 93.1% | 94.9% | 89.4% | 101% | 64.2% | 63.1% | 53.8% | 94.7% | -2% | significant interaction | advantageously selective ligands of the 5-HT2A receptor | significant interaction | significant interaction | no significant interaction | 20.1% | no significant interaction | interaction at 5-HT2B receptor, in words [2, 11]: significant interaction; D3 % inhibition compared with other dopamine receptors, in words ([8]; 10 μM, may indicate greater selectivity for D3): higher % inhibition than at other dopamine receptors
CCN(CCF)C(=O)C1C=C2c3cccc4[nH]cc(c34)CC2N(C)C1 (centres unmarked) [Compound 4, lysergic acid monofluoro diethylamide] | 97.1% | 97.9% | 100% | 100% | 92.1% | 92.7% | 97.1% | 97.7% | 12.3% | – | advantageously selective ligands of the 5-HT2A receptor | – | – | – | 71.6% | no significant interaction | –
